Data: patent US20220160658A1, “TESOFENSINE FOR REDUCTION OF BODY WEIGHT IN PRADER-WILLI PATIENTS” (Saniona A/S, priority 2019, published 2022)
Values joined by “and” are separate entries in the source; they are usually repeats but may differ in a detail not shown here. Equal entries are not always repeated.

What was measured:
[1] = Phase 2a trial in adolescent PWS patients: hyperphagia score; type: in vivo, human
Description: (§1) This study included a double blind (DB) part (3 months) and two Open Label Extensions (OLE), each 3 months. Adolescents (12 to 17 years of age) received: tesofensine 0.125 mg daily (0.25 mg every second day)+metoprolol succinate 25 mg. Example 4 relates to Example 2.
(§2) The initial double blind (DB) phase of this study utilized a dose of tesofensine of 0.125 mg daily. In the first 3-month Open Label Extension (OLE1), a dose of 0.125 mg tesofensine was maintained. In the second OLE (OLE2), the tesofensine dose, if judged safe by the principle investigator (PI), was increased to 0.25 mg daily.

[2] = Phase 2a trial in adolescent PWS patients: tesofensine plasma levels; type: in vivo, human; settings: for concentration at 3 months: human, plasma, oral
Description: as §1, §2

[3] = cited from earlier work
[4] = system: rat model of diet-induced obesity (DIO); settings: DIO rats; cited from earlier work
[5] = Phase 2a trial in adolescent PWS patients: body weight and BMI, random coefficients analysis; type: in vivo, human
Description: Arm 1) tesofensine 0.125 mg+metoprolol 25 mg administered once a day, in the morning with a meal-first, an initial titration dose of tesofensine 0.0625 mg+metoprolol 25 mg will be given for the first 4 weeks, in the morning with a meal. Following a favorable review of all safety data for each subject by the investigator, tesofensine 0.125 mg+metoprolol 25 mg will be given for the final 9 weeks (the above proposed dosing plan can be adjusted by the DSMB, if needed)
as §1, §2
In the random coefficients analysis, each subject was considered as having their own profile of data, i.e. their own set of weight change/hyperphagia values and corresponding pk values. The analysis was essentially conducted by fitting a regression line to each subject individually:
where j denotes subjects, j=1 to m, and i denotes the measurement with subject j, i=1 to nj. The slope βj and intercept αj estimate for each subject j=1 to m, along with their standard errors, were then obtained. In a final step, the βj and αj values were averaged across the m subjects to give the overall mean regression slope and mean intercept, βj and αj, which gives the correlation line, as well as the associated confidence interval.

[6] = in vivo; cited from earlier work
[7] = Phase 2a trial in adult PWS patients: tesofensine plasma concentration; type: in vivo, human; settings: for Mean trough plasma concentration of tesofensine: TM002 study, 0.50 mg tesofensine + 50 mg metoprolol daily
Description: This exploratory Phase 2a trial comprised in of a total of nine adult patients with Prader-Willi syndrome (PWS) of which six patients received co-administration of tesofensine (0.50 mg)/metoprolol (50 mg) (A, active treatment—Tesomet) and three patients received placebo (P). The initial plan was to complete 10-20 adult subjects with PWS. However, ultimately nine patients were randomized as more subjects were not available at the two participating sites.
The main objective of this study was to examine the effect of co-administration of tesofensine/metoprolol on body weight in subjects with PWS. Further objectives were: • To establish a pharmacokinetic profile of tesofensine and metoprolol in subjects with PWS. • To examine the effect of co-administration of tesofensine/metoprolol on glycaemic control and lipid profile in subjects with PWS • To examine the effect of co-administration of tesofensine/metoprolol on HR and BP in subjects with PWS • To examine the effects of co-administration of tesofensine/metoprolol on body composition in subjects with PWS • To evaluate overall safety and tolerability of co-administration of the tesofensine/metoprolol in subjects with PWS
Arm 1) tesofensine 0.50 mg+metoprolol 50 mg administered once a day, in the morning with a meal
The study included two arms: Tesomet 0.5/50 (combination of 0.50 mg tesofensine and 50 mg of metoprolol ER) or placebo tablets matching tesofensine+metoprolol succinate, each administered once daily in the morning with a meal.
The primary endpoint was change in body weight following 91 days of treatment with either tesofensine+metoprolol or placebo. Patients were weighed throughout the study period to track changes in body weight. Secondary endpoints included change in hyperphagia-related behavior, pharmacokinetic profile, effects of co-administration of tesofensine/metoprolol on HR, BP, glycemic control, lipid profile and body composition, and safety and tolerability.

[8] = cited from earlier work; remark: listed apart in the source
[9] = 0.125 mg tesofensine daily (DB, OLE1)

Compound: CCOC[C@@H]1[C@@H](c2ccc(Cl)c(Cl)c2)C[C@@H]2CC[C@H]1N2C [Tesofensine, (1R,2R,3S,5S)-3-(3,4-dichlorophenyl)-2-(ethoxymethyl)-8-methyl-8-azabicyclo[3.2.1]octane]
- hyperphagia scores compared to placebo ([1]; DB part and OLE1, 0.125 mg tesofensine daily): did not differ from placebo
- hyperphagia compared to placebo ([1]; DB phase, 0.125 mg tesofensine dose): No difference compared to placebo
- hyperphagia scores ([1]; OLE2, 0.25 mg tesofensine): dropped to single digit numerical values
- plasma levels of tesofensine [2, 9]: 3 to 5 ng/mL
- concentration at 3 months [2, 9]: 3 to 5 ng/mL
- concentration at 3 months ([2]; 0.25 mg tesofensine daily (OLE2)): 7 to 9 ng/mL
- average tesofensine trough plasma concentration ([3]; TIPO-1, dose of 0.5 mg Tesofensine): 10 ng/mL
- efficacious target plasma levels ([3]; previous studies in obese individuals at the same dosages): ~10 ng/mL and around 10 ng/mL
- body weight [4]: robust and sustained weight loss
- weight change compared to placebo ([5]; adolescent PWS, DB phase, 0.125 mg tesofensine dose): No difference compared to placebo
- decrease in weight ([5]; adolescent PWS, at 10 ng/mL tesofensine plasma level, from the correlation analysis): around 2%
- tesofensine plasma level that counteracts the baseline weight gain of around 3% ([5]; adolescent PWS, random coefficients analysis): around 6 ng/mL
- Slope (SE), monthly BMI change versus tesofensine plasma level ([5]; random coefficients analysis, N=8, p=0.0031): −0.478 (0.1081)
- Slope (SE), monthly body weight change versus tesofensine plasma level ([5]; random coefficients analysis, N=8, p=0.0046): −0.460 (0.1120)
- serum half-life [6]: nine
- Mean trough plasma concentration of tesofensine ([7]; V5 (day 28), n = 6): 18 ± 9 ng/mL
- Mean trough plasma concentration of tesofensine ([7]; V9 (day 56), n = 5): 21 ± 8 ng/mL
- Mean trough plasma concentration of tesofensine ([7]; V14 (day 91), n = 2): 23 ± 1 ng/mL
- plasma levels of tesofensine ([7]; adult PWS, 0.50 mg tesofensine and 50 mg metoprolol): 20 to 40 ng/mL
- plasma concentration in individual patients ([7]; adult PWS, 0.5 mg tesofensine, two patients): 34.1 ng/mL and 34.2 ng/mL
- mean trough plasma concentration ([7]; adult PWS, dosing of 0.5 mg tesofensine, whole study): ~20 ng/mL
- waist circumference and sagittal diameter ([8]; Astrup et al., 2008): significantly decreases
- weight loss ([8]; obese patients, long-term treatment, corrected for placebo and diet effects): about 10%

Compound: COCCc1ccc(OCC(O)CNC(C)C)cc1 (stereo not drawn) [Metoprolol, 1-(Isopropylamino)-3-[4-(2-methoxyethyl)-phenoxy]-propan-2-ol, reference compound]
- half-life [6]: 3 to 4 h
